Laboratory results reported in the kinase profiling compilation of Christmann-Franck et al. (2016).

What was measured:
CHEK1 (human) = CHEK1 (human) (UniProt O14757); test: KINOMEscan competition binding; settings: compound 10.0 µM
DCLK1 (human) = DCLK1 (human) (UniProt O15075); test: KINOMEscan competition binding; settings: compound 10.0 µM
DCLK2 (human) = DCLK2 (human) (UniProt Q8N568); test: KINOMEscan competition binding; settings: compound 10.0 µM
[1] = test system: EIF2AK4 KD2 (human), Q9P2K8 [S808G]; test: KINOMEscan competition binding; settings: compound 10.0 µM
GAK (human) = GAK (human) (UniProt O14976); test: KINOMEscan competition binding; settings: compound 10.0 µM
Chain of GAK (human) (O14976 whole entry, looked up): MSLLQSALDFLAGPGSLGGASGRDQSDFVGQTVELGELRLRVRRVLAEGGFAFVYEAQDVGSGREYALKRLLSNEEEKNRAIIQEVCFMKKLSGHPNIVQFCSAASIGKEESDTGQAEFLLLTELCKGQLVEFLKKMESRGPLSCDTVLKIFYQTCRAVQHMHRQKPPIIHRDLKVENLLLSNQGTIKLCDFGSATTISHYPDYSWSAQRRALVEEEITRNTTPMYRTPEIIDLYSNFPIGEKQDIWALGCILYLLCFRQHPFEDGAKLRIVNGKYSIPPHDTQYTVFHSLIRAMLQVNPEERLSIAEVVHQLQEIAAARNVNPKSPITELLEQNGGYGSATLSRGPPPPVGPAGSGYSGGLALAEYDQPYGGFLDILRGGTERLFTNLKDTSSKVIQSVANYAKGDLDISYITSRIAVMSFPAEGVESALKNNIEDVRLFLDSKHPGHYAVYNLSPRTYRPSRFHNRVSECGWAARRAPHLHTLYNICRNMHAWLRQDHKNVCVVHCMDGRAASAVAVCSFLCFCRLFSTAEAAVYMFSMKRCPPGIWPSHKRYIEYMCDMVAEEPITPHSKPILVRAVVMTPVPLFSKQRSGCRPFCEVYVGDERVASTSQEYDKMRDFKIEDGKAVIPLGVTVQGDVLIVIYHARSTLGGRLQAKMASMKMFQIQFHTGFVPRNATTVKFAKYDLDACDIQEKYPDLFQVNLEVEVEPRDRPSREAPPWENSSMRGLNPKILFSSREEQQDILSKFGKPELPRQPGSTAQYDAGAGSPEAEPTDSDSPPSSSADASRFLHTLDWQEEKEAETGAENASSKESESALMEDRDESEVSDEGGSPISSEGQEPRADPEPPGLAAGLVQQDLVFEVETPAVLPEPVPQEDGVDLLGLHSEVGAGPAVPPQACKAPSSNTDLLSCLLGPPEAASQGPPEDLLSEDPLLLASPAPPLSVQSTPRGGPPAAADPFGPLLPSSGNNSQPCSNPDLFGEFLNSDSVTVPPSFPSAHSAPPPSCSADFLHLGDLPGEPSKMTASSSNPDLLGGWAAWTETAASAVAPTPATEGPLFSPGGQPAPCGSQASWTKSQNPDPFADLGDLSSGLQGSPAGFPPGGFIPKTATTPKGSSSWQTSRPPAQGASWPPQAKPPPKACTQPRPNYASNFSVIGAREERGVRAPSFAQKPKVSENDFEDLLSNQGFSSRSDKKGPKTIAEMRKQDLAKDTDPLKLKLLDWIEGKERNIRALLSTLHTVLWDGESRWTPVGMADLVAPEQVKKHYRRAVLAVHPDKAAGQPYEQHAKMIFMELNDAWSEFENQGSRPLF

MYLK (human) = MYLK (human) (UniProt Q15746); test: KINOMEscan competition binding; settings: compound 10.0 µM
Chain of MYLK (human) (Q15746 whole entry, looked up): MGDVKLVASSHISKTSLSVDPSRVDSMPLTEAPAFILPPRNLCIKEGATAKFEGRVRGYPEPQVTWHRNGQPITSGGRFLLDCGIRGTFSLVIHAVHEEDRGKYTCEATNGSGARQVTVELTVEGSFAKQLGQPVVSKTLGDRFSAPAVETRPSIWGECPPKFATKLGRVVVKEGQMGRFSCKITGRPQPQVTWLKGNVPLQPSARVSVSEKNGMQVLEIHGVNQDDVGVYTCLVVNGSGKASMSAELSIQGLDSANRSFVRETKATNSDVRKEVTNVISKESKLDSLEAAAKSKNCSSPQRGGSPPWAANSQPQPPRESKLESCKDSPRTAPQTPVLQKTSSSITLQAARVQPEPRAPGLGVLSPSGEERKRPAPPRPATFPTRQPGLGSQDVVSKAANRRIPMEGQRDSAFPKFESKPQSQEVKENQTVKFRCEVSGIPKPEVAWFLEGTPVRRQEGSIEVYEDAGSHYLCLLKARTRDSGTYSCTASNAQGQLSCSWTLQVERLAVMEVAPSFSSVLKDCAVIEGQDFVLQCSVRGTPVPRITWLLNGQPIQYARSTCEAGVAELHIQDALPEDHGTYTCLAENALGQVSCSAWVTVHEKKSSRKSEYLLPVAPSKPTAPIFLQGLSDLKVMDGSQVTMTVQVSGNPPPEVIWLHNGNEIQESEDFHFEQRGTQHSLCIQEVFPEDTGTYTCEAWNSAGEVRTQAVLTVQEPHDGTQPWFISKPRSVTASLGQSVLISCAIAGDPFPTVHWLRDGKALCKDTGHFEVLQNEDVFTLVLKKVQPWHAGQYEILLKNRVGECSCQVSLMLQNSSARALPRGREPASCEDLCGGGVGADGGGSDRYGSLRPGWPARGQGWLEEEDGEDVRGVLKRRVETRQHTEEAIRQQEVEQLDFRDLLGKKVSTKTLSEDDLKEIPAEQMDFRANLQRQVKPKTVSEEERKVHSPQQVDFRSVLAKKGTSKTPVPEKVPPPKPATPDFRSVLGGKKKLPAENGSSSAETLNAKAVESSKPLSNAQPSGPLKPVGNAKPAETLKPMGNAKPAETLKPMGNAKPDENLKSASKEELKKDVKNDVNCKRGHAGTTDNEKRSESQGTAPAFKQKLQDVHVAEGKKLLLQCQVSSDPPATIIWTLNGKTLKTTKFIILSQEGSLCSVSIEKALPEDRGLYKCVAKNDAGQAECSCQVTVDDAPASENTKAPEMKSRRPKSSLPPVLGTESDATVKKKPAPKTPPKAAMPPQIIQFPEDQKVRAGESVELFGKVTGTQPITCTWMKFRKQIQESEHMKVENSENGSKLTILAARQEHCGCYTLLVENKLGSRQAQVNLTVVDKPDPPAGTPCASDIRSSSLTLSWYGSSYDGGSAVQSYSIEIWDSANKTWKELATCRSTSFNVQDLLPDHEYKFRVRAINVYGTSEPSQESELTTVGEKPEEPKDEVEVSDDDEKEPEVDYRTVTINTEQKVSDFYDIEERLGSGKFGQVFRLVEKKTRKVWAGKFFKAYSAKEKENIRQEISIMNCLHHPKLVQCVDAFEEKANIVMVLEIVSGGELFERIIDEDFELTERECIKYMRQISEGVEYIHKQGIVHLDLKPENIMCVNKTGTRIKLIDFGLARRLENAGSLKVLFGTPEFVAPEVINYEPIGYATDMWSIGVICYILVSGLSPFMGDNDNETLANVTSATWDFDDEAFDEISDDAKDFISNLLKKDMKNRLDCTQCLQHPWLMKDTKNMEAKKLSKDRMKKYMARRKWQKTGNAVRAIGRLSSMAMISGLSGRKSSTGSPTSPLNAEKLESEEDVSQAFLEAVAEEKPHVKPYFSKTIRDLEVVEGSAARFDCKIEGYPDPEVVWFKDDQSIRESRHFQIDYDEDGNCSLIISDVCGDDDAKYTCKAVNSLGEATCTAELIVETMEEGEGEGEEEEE

PLK1 (human) = PLK1 (human) (UniProt P53350); test: KINOMEscan competition binding; settings: compound 10.0 µM
Chain of PLK1 (human) (P53350 whole entry, looked up): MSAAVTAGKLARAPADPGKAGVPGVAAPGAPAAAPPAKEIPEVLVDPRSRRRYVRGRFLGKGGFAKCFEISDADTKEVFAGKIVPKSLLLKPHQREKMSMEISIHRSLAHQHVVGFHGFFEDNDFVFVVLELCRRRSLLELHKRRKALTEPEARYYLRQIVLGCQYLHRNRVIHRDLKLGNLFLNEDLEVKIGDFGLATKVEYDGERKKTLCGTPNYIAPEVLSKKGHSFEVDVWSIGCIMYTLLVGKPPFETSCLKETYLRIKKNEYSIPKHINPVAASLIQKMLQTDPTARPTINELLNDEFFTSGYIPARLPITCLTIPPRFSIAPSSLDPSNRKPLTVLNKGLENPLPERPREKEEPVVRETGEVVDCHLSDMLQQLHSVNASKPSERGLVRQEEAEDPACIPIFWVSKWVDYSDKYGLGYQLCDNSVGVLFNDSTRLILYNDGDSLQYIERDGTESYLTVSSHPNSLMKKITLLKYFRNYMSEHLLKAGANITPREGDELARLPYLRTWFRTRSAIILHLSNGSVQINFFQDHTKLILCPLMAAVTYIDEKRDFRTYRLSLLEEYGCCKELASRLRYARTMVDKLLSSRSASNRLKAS

PLK3 (human) = PLK3 (human) (UniProt Q9H4B4); test: KINOMEscan competition binding; settings: compound 10.0 µM
Chain of PLK3 (human) (Q9H4B4 whole entry, looked up): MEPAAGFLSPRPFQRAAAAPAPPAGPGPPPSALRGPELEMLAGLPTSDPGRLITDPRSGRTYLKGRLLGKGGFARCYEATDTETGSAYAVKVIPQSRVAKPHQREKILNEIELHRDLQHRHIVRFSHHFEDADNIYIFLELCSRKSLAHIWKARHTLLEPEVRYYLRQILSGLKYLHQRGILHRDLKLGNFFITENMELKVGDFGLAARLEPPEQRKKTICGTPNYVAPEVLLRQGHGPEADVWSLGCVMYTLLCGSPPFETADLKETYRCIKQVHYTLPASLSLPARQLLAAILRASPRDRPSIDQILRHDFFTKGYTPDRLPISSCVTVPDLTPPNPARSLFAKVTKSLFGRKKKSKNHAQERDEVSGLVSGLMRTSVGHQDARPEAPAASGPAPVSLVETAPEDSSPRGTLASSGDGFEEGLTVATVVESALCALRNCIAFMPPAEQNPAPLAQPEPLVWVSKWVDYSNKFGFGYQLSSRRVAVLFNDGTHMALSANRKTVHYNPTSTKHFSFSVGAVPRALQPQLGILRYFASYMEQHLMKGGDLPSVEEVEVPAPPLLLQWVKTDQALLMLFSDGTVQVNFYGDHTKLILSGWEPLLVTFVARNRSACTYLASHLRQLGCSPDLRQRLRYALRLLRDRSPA

PLK4 (human) = PLK4 (human) (UniProt O00444); test: KINOMEscan competition binding; settings: compound 10.0 µM
PRKD1 (human) = PRKD1 (human) (UniProt Q15139); test: KINOMEscan competition binding; settings: compound 10.0 µM
PRKD2 (human) = PRKD2 (human) (UniProt Q9BZL6); test: KINOMEscan competition binding; settings: compound 10.0 µM
RPS6KA1 KD2 (human) = RPS6KA1 KD2 (human) (UniProt Q15418); test: KINOMEscan competition binding; settings: compound 10.0 µM
RPS6KA2 KD2 (human) = RPS6KA2 KD2 (human) (UniProt Q15349); test: KINOMEscan competition binding; settings: compound 10.0 µM
RPS6KA4 KD2 (human) = RPS6KA4 KD2 (human) (UniProt O75676); test: KINOMEscan competition binding; settings: compound 10.0 µM
RPS6KA6 KD2 (human) = RPS6KA6 KD2 (human) (UniProt Q9UK32); test: KINOMEscan competition binding; settings: compound 10.0 µM
STK33 (human) = STK33 (human) (UniProt Q9BYT3); test: KINOMEscan competition binding; settings: compound 10.0 µM
Chain of STK33 (human) (Q9BYT3 whole entry, looked up): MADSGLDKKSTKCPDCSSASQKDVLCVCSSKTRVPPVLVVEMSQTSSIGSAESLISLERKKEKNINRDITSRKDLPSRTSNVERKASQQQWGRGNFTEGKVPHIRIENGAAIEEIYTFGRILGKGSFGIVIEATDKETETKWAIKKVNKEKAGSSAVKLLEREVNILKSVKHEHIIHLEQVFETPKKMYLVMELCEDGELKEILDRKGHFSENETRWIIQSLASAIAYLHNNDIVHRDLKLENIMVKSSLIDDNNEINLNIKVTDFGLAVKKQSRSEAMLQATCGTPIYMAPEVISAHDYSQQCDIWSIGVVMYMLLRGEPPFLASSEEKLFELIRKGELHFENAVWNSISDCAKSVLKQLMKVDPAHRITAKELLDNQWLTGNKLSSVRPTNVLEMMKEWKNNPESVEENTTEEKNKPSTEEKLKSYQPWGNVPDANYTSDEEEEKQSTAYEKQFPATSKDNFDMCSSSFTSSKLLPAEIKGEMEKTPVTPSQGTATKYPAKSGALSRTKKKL

TTK (human) [2] = biological target: TTK (human) (UniProt P33981); test: KINOMEscan competition binding; settings: for kinase still bound, per cent of control: compound 10.0 µM
ALK (human) = ALK (human) (UniProt Q9UM73); test: KINOMEscan competition binding; settings: compound 10.0 µM
CAMKK2 (human) = CAMKK2 (human) (UniProt Q96RR4); test: KINOMEscan competition binding; settings: compound 10.0 µM
FER (human) = FER (human) (UniProt P16591); test: KINOMEscan competition binding; settings: compound 10.0 µM
INSRR (human) = INSRR (human) (UniProt P14616); test: KINOMEscan competition binding; settings: compound 10.0 µM
MINK1 (human) = MINK1 (human) (UniProt Q8N4C8); test: KINOMEscan competition binding; settings: compound 10.0 µM
PRKD3 (human) = PRKD3 (human) (UniProt O94806); test: KINOMEscan competition binding; settings: compound 10.0 µM
PTK2 (human) = PTK2 (human) (UniProt Q05397); test: KINOMEscan competition binding; settings: compound 10.0 µM
PTK2B (human) = PTK2B (human) (UniProt Q14289); test: KINOMEscan competition binding; settings: compound 10.0 µM
SLK (human) = SLK (human) (UniProt Q9H2G2); test: KINOMEscan competition binding; settings: compound 10.0 µM
ULK1 (human) = ULK1 (human) (UniProt O75385); test: KINOMEscan competition binding; settings: compound 10.0 µM
ULK2 (human) = ULK2 (human) (UniProt Q8IYT8); test: KINOMEscan competition binding; settings: compound 10.0 µM
DAPK2 (human) = DAPK2 (human) (UniProt Q9UIK4); test: KINOMEscan competition binding; settings: compound 10.0 µM
[3] = test system: EGFR (human), P00533 [747-751 del / S ins]; test: KINOMEscan competition binding; settings: compound 10.0 µM
[4] = test system: EGFR (human), P00533 [752-759 del]; test: KINOMEscan competition binding; settings: compound 10.0 µM
[5] = test system: EGFR (human), P00533 [A750P; 747-749 del]; test: KINOMEscan competition binding; settings: compound 10.0 µM
[6] = test system: EGFR (human), P00533 [G719C; 746-750 del]; test: KINOMEscan competition binding; settings: compound 10.0 µM
[7] = test system: EGFR (human), P00533 [P753S; 747-752 del]; test: KINOMEscan competition binding; settings: compound 10.0 µM
TNK1 (human) = TNK1 (human) (UniProt Q13470); test: KINOMEscan competition binding; settings: compound 10.0 µM
TTK (human) [8] = biological target: TTK (human) (UniProt P33981); test: SelectScreen, TR FRET

| kinase still bound, per cent of control (DCLK1 (human)) [%] | kinase still bound, per cent of control (DCLK2 (human)) [%] | kinase still bound, per cent of control (GAK (human)) [%] | kinase still bound, per cent of control (MYLK (human)) [%] | kinase still bound, per cent of control (PLK1 (human)) [%] | kinase still bound, per cent of control (PLK3 (human)) [%] | kinase still bound, per cent of control (PLK4 (human)) [%] | kinase still bound, per cent of control (PRKD1 (human)) [%] | kinase still bound, per cent of control (PRKD2 (human)) [%] | kinase still bound, per cent of control (RPS6KA2 KD2 (human)) [%] | kinase still bound, per cent of control (RPS6KA6 KD2 (human)) [%] | kinase still bound, per cent of control (STK33 (human)) [%] | kinase still bound, per cent of control (TTK (human) [2]) [%] | kinase still bound, per cent of control (PTK2 (human)) [%] | kinase still bound, per cent of control (PTK2B (human)) [%] | Structure (SMILES) | further results |
| --- | --- | --- | --- | --- | --- | --- | --- | --- | --- | --- | --- | --- | --- | --- | --- | --- |
| 0.65 | 25 | 2.6 | 24 | 1.8 | 0.95 | 26 | 19 | 23 | 13 | 17 | 7 | 2.4 |  |  | COc1cc(N2CCC(N3CCN(C)CC3)CC2)ccc1Nc1ncc2c(n1)N1CCCC1CC(=O)N2C (stereo not drawn) | kinase still bound, per cent of control (CHEK1 (human)): 29%; kinase still bound, per cent of control [1]: 32%; kinase still bound, per cent of control (RPS6KA1 KD2 (human)): 28%; kinase still bound, per cent of control (RPS6KA4 KD2 (human)): 30% |
| 1.4 | 4.5 | 1.2 | 7.6 | 9 | 20 |  | 24 | 29 | 12 | 16 | 5.4 | 1.4 | 0.95 | 4.6 | COc1cc(N2CCN(C)CC2)ccc1Nc1ncc2c(n1)N(C1CCCC1)C(C)CC(=O)N2C (stereo not drawn) | kinase still bound, per cent of control (ALK (human)): 6.6%; kinase still bound, per cent of control (CAMKK2 (human)): 24%; kinase still bound, per cent of control (FER (human)): 25%; kinase still bound, per cent of control (INSRR (human)): 33%; kinase still bound, per cent of control (MINK1 (human)): 31%; kinase still bound, per cent of control (PRKD3 (human)): 14%; kinase still bound, per cent of control (SLK (human)): 3.6%; kinase still bound, per cent of control (ULK1 (human)): 19%; kinase still bound, per cent of control (ULK2 (human)): 1.3% |
|  |  | 1.8 | 25 | 3 | 0 | 8.3 |  |  |  |  | 11 | 3.2 | 6.8 | 18 | COc1cc(N2CCC(O)CC2)ccc1Nc1ncc2c(n1)N(C1CCCC1)CCC(=O)N2C | kinase still bound, per cent of control (DAPK2 (human)): 31%; kinase still bound, per cent of control [3]: 29%; kinase still bound, per cent of control [4]: 28%; kinase still bound, per cent of control [5]: 22%; kinase still bound, per cent of control [6]: 32%; kinase still bound, per cent of control [7]: 33%; kinase still bound, per cent of control (TNK1 (human)): 26%; Kd (TTK (human) [2]): 28.4 nM; IC50 (TTK (human) [8]): 342 nM |
